Assay: wn = mass fraction of the nth substance listed
Conditions: Liquid, Vibrating tube method

CC(=O)c1ccccc1 [acetophenone] + CCCCCCCCO
mass density [kg/m3]
Conditions | 100 kPa | 10000 kPa | 15000 kPa | 20000 kPa | 25000 kPa | 30000 kPa | 35000 kPa | 40000 kPa | 45000 kPa | 50000 kPa
298.15 K, w2 = 0.1075 | 996 | 1001.7 | 1004.5 | 1007.2 | 1009.8 | 1012.3 | 1014.9 | 1017.3 | 1019.7 | 1022.1
298.15 K, w2 = 0.2132 | 971.2 | 977 | 979.8 | 982.5 | 985.2 | 987.7 | 990.3 | 992.8 | 995.1 | 997.5
298.15 K, w2 = 0.3172 | 947.9 | 953.8 | 956.6 | 959.4 | 962 | 964.7 | 967.2 | 969.7 | 972.2 | 974.6
298.15 K, w2 = 0.4195 | 926.2 | 932.2 | 935.1 | 937.9 | 940.6 | 943.2 | 945.8 | 948.3 | 950.7 | 953.2
298.15 K, w2 = 0.5201 | 905.9 | 911.9 | 914.9 | 917.6 | 920.3 | 923 | 925.6 | 928.1 | 930.6 | 933
298.15 K, w2 = 0.6192 | 886.6 | 892.7 | 895.6 | 898.4 | 901.2 | 903.8 | 906.4 | 909 | 911.4 | 913.8
298.15 K, w2 = 0.7166 | 868.6 | 874.7 | 877.6 | 880.4 | 883.2 | 885.9 | 888.5 | 891 | 893.5 | 895.9
298.15 K, w2 = 0.8126 | 851.8 | 857.9 | 860.9 | 863.7 | 866.5 | 869.2 | 871.8 | 874.2 | 876.8 | 879.2
298.15 K, w2 = 0.907 | 836 | 842.1 | 845.1 | 848 | 850.7 | 853.4 | 855.9 | 858.5 | 861 | 863.3
318.15 K, w2 = 0.1075 | 978.9 | 985.3 | 988.3 | 991.3 | 994.1 | 997 | 999.5 | 1002.2 | 1004.8 | 1007.3
318.15 K, w2 = 0.2132 | 954.5 | 960.9 | 964 | 967 | 969.9 | 972.7 | 975.4 | 978 | 980.7 | 983.2
318.15 K, w2 = 0.3172 | 931.3 | 937.8 | 940.9 | 943.9 | 946.9 | 949.7 | 952.4 | 955.1 | 957.7 | 960.3
318.15 K, w2 = 0.4195 | 910 | 916.6 | 919.7 | 922.8 | 925.7 | 928.6 | 931.4 | 934 | 936.8 | 939.3
318.15 K, w2 = 0.5201 | 890 | 896.7 | 899.8 | 902.9 | 905.9 | 908.7 | 911.5 | 914.2 | 916.9 | 919.5
318.15 K, w2 = 0.6192 | 871.1 | 877.8 | 881.1 | 884.1 | 887.1 | 890 | 892.7 | 895.4 | 898.1 | 900.7
318.15 K, w2 = 0.7166 | 853.4 | 860.2 | 863.3 | 866.4 | 869.5 | 872.4 | 875.2 | 877.9 | 880.5 | 883.1
318.15 K, w2 = 0.8126 | 837 | 843.9 | 847 | 850.2 | 853.2 | 856 | 858.9 | 861.6 | 864.3 | 866.8
318.15 K, w2 = 0.907 | 821.6 | 828.3 | 831.6 | 834.7 | 837.7 | 840.6 | 843.4 | 846.1 | 848.8 | 851.3
348.15 K, w2 = 0.1075 | 952.5 | 959.7 | 963.2 | 966.6 | 969.9 | 973.1 | 976.1 | 979.2 | 982 | 984.8
348.15 K, w2 = 0.2132 | 928.4 | 935.9 | 939.4 | 942.8 | 946.1 | 949.2 | 952.3 | 955.3 | 958.2 | 961
348.15 K, w2 = 0.3172 | 905.7 | 913.1 | 916.7 | 920.1 | 923.5 | 926.7 | 929.8 | 932.9 | 935.9 | 938.6
348.15 K, w2 = 0.4195 | 884.7 | 892.4 | 896 | 899.5 | 902.9 | 906.2 | 909.3 | 912.3 | 915.3 | 918.2
348.15 K, w2 = 0.5201 | 865.1 | 872.8 | 876.5 | 880 | 883.4 | 886.6 | 889.6 | 892.8 | 895.9 | 898.7
348.15 K, w2 = 0.6192 | 846.9 | 854.6 | 858.3 | 861.8 | 865.3 | 868.5 | 871.7 | 874.8 | 877.8 | 880.7
348.15 K, w2 = 0.7166 | 829.6 | 837.4 | 841.1 | 844.6 | 848 | 851.3 | 854.5 | 857.6 | 860.5 | 863.4
348.15 K, w2 = 0.8126 | 813.7 | 821.5 | 825.2 | 828.7 | 832.1 | 835.4 | 838.6 | 841.7 | 844.6 | 847.5
348.15 K, w2 = 0.907 | 798.4 | 806.4 | 810.2 | 813.8 | 817.2 | 820.4 | 823.6 | 826.7 | 829.7 | 832.5

Reference: the NIST ThermoML archive (doi:10.1021/je049930e)
